These results are taken from patent publication US11229633B2, “Arimoclomol formulation” (Orphazyme A/S, priority 2014, dated 2022).

A short description of data set [1]: Kinetic solubility assessment in the assay buffers. The class given is physicochemical. As to conditions: aqueous buffer, kinetic from dmso stock, 37° C.
Method: The aqueous solubility of the TA was determined by spectrophotometric measurements in combination with optical microscopy evaluation (5 and 10× magnification). […] The timeframe of the solubility assessment covered the incubation time of the corresponding in vitro experiment.
A stock solution and dilution series (5-step, 2-fold dilution series) of TA were prepared in water. Stock solutions were mixed with the appropriate assay buffers in a 96-wells plate and incubated for 10 minutes at 37° C. before the solutions were evaluated at 500 nm. […] Therefore, to be considered soluble at a given concentration, the background corrected absorbance of the TA solution must be less than 0.030 absorbance units (ΔA=Asolution−Ablank <0.030). The background corrected absorbance value for each solution was determined.
For data set [2] the following is noted: cited from earlier work.
In another data set the target is T1, human OAT3 (Homo sapiens, UniProt Q8TCC7).
T1 construct: expressed in transfected cells; host or cells: MDCKII (protocol UPT-MDCKII-OAT3-E3S; control: parental MDCKII)
T1 sequence (Q8TCC7 1-542): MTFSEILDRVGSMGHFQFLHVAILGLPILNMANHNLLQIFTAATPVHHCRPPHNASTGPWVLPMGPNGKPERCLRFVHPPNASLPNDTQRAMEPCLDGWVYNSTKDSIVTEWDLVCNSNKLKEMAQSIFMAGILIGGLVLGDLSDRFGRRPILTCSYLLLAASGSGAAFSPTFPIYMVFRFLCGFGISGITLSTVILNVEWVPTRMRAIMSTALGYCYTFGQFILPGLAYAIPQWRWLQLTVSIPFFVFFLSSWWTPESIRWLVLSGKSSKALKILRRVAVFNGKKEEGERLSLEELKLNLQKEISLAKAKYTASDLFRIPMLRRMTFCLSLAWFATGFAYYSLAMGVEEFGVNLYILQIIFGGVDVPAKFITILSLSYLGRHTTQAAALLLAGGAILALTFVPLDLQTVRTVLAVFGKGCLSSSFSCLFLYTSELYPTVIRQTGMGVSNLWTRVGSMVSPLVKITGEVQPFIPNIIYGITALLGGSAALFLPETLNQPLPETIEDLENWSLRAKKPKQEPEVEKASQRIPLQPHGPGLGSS
The data set can be described thus: Uptake transporter inhibition assay, OAT3. It is filed as in vitro ADME. More on the design: key to maximum inhibition: NIO: No interaction observed. As to conditions: for maximum inhibition: 0.3-300 μM. As for the experimental part: Uptake experiments were performed using CHO, MDCKII, or HEK293 cells stably expressing the respective uptake transporters.
Cells were cultured at 37±1° C. in an atmosphere of 95:5 air:CO2 and were plated onto standard 96-well tissue culture plates at the cell number described in table 4.
Before the experiment, the medium was removed and the cells were washed twice with 100 μl of HK buffer at pH 7.4 (prepared from Sigma chemicals, Sigma-Aldrich, St Louis, Mo.). Uptake experiments were carried out at 37±1° C. in 50 μl of HK buffer (pH 7.4) containing the probe substrate and the TA or vehicle control (water).
After the experiment, cells were washed twice with ice cold, 100 μl of HK buffer and lysed with 50 μl of 0.1 M NaOH (1 mM CaCl2) in 5% SDS in the case of OATP1B3). Fluo-3 transport (OATP1B3) was determined by measuring fluorescence using 485 nm and 520 nm as the excitation and emission wavelengths, respectively. Radiolabelled probe substrate transport was determined by measuring an aliquot (35 μl) from each well for liquid scintillation counting.
Uptake of the probe substrate in control cells provided background activity values for all data points. Incubation without TA or reference inhibitor (solvent only) provided 100% activity values. A reference inhibitor served as positive control for inhibition.
The amount of translocated probe substrate was determined for each well in cpm or RFU. Relative activities were calculated from the equation:
[formula] A: amount of translocated substrate in the presence of TA in transfected cells B: amount of translocated substrate in the presence of TA in control cells C: amount of translocated substrate in the presence of solvent in transfected cells D: amount of translocated substrate in the presence of solvent in control cells Calculation of Fold Accumulation Values
In uptake transporter inhibition assays, the IC50 (μM) was calculated, where applicable. […]

Each structure is given as a SMILES string. “Also recorded” adds a separate entry of the source.

As usually defined, the solubility is the concentration that dissolves in the medium under given conditions. In data set [1], `[O-][n+]1cccc(C(Cl)=NOCC(O)CN2CCCCC2)c1` (stereo not shown) [Arimoclomol, N-[2-hydroxy-3-(1-piperidinyl)-propoxy]-pyridine-1-oxide-3-carboximidoyl chloride] came in with a solubility at 10 min of at least 300 µM. Further, the maximum tolerated dose result in data set [2] (healthy human volunteers) is given as “no maximum tolerated dose has been reached”. Moreover, in data set [2] (oral single ascending or repeated doses 50 to 800 mg, 261 subjects), the safety and tolerability result was “safe and well-tolerated”. The serum creatinine levels entry in data set [2] (single- and multiple-dose Phase I studies) is “slight and reversible increases”. The maximum inhibition result at human OAT3 (Table 2) and at human OAT3 (Table 5) was “NIO” each time. Moreover, the “Influence on OAT3-mediated probe substrate accumulation (in words)” value at human OAT3 (applied concentrations) is reported as “did not influence; also recorded: not an inhibitor”.
